The target in assay [1] is T1, human Glucagon receptor (GCGR) (Homo sapiens, UniProt P47871).
T1 construct: A cDNA fragment encoding the full-length open reading frame of the human GCGR; expressed in transfected cells; host or cells: CHO-K1, pcDNA3.1+, Lipofectamine 2000
Put plainly: cAMP accumulation assay, CHO-K1 cells expressing human GCGR. Particulars: mean pEC50, Table 10. The assay is classed as cell-based. The text has this: (§1) In the presence of the non-specific cAMP/cGMP phosphodiesterase inhibitor, 3-isobutyl-1-methylxanthine (IBMX), accumulating cAMP can be measured in vitro using common detection methods. Thus, it is possible to estimate an in vitro potency (pEC50) for peptides activating each of these receptors using fit dose-response curves for cAMP accumulation.
A cDNA fragment encoding the full-length open reading frame of the cynomolgus monkey GLP-1R (Genebank accession #XM_028847603 was cloned into pcDNA3.1+ for expression in CHO-K1 cells. A cDNA fragment encoding the full-length open reading frame of the human GCGR (Genebank accession #NM_000160 was cloned into pcDNA3.1+ for expression in CHO-K1 cells. A cDNA fragment encoding the full-length open reading frame of the rat GCGR (Genebank accession #NM_12091 was cloned into pcDNA3.1+ for expression in CHO-K1 cells. A cDNA fragment encoding the full-length open reading frame of the cynomolgus monkey GCGR (Genebank accession #XM_005585255 was cloned into pcDNA3.1+ for expression in CHO-K1 cells.
(§2) On day 1, CHO-K1 cells were plated at 1.5 million cells per T75 flask in 90% F12-K media supplemented with 10% FBS. On day 3 cells were transfected with 40 mcg of each expression plasmid using Lipofectamine 2000 transfection reagent. On day 5, cells were dispensed at 1000 cells per well in white 384-well OptiPlates in 5 mcL of assay buffer consisting of 1×HBSS, 5 mM HEPES, 0.5 mM IBMX, and 0.1% casein.
(§3) Peptides were serially diluted 4-fold in assay buffer to final concentrations ranging from 1×10^−9 M to 9.5×10^−16 M. Two assay controls consisting of 50 mcM forskolin (cAMP system maximum) or assay buffer only (cAMP system minimum) were also prepared. Five microliters of each peptide-concentration, or assay control, was added to triplicate wells and incubated for thirty minutes at room temperature. During this incubation step a 4× europium labelled cAMP tracer solution and a 4× Ulight®-anti-cAMP solution (consisting of an anti-cAMP monoclonal antibody labelled with Ulight™ dye) was prepared according to the manufacturer's protocol (PerkinElmer LANCE Ultra cAMP kit). Following this incubation, 5 mcL europium labelled cAMP and 5 mcL Ulight anti-cAMP antibody was added to each well. The plate was covered to prevent evaporation and incubated for 60 minutes at room temperature in the dark. Plates were read on an Envision fluorescent plate reader (PerkinElmer).
(§4) Test values were first normalized to the system maximum and system minimum averaged values in Excel using the formula: (test value−system min average)/(system max average -system min average)*100. Normalized test values represent a baseline corrected percentage of the system maximum cAMP response induced by forskolin. Data from up to 3 replicate tests were analyzed for each peptide. Potency values were estimated using GraphPad Prism software (v7.04) by fitting data to a 4-parameter logistic curve model: Y=Bottom+(Top−Bottom)/(1+10^((LogEC50−X))). The Hill slope was constrained to 1.0. EC50 values were converted to pEC50 values using the formula: pEC50=−Log (EC50).
(In general: Cyclic AMP is a second messenger, typically raised through Gs and lowered through Gi signalling.)

The target in assay [2] is T2, human GLP-1 receptor (GLP-1R) (Homo sapiens, UniProt P43220).
T2 construct: expressed in transfected cells
The assay can be described thus: cAMP accumulation assay, CHO-K1 cells stably expressing human GLP-1R. It counts as cell-based. Particulars: cAMP accumulation, mean pEC50, Table 10. The protocol: as §1
CHO-K1 cells stably expressing human GLP-1R (Genebank accession #NM_002062) were grown in 90% F12-K media supplemented with 10% FBS and 250 μg/ml G418.
as §2, §3, §4

*1 amine or outer side, *2 acyl side, *3 side chain or, on linkers, in order; H or OH if unused. Where a SMILES comes first, the peptide text is derived from it. Bridges are numbered along the chain shown (N, C = ends). Side-chain parts run from the residue outwards. [ ]: non-standard residue; d: D form. The star is where a group is joined. C20 diacid = O=C(O)CCCCCCCCCCCCCCCCCCC(=O)*; γGlu = O=C(O)[C@H](CCC(=O)[*:2])N[*:1]; AEEA = NCCOCCOCC(=O)O; Aib = CC(C)(N)C(=O)O

T2 sequence (P43220 24-463): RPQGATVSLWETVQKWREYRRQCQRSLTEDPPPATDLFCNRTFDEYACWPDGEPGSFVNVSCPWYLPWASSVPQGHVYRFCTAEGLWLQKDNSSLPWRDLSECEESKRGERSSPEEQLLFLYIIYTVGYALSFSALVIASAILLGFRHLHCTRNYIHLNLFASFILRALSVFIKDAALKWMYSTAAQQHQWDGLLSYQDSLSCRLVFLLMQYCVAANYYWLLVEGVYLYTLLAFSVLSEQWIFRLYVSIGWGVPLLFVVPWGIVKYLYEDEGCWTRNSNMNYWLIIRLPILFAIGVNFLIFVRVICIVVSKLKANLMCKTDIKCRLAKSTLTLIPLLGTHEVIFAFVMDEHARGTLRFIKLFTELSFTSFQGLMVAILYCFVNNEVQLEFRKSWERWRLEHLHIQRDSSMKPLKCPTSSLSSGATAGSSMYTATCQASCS
T1 sequence (P47871 26-477): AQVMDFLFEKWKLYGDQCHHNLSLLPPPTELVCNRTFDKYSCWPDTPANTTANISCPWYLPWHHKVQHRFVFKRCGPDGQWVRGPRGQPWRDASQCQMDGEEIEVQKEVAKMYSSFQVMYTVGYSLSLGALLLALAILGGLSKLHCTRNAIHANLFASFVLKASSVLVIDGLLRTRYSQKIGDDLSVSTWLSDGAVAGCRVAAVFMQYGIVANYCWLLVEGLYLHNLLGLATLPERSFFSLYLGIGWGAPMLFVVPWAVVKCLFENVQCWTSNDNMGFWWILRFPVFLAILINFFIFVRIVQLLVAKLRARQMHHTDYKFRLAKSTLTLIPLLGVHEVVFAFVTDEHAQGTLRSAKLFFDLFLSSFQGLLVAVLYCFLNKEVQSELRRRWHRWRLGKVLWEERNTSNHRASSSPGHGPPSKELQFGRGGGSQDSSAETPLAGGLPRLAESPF

What is called EC50 is the midpoint of the concentration-response curve. Consider `CC(C)C[C@H](NC(=O)[C@H](Cc1ccc(O)cc1)NC(=O)[C@H](CCCCN)NC(=O)[C@H](CO)NC(=O)[C@H](Cc1ccc(O)cc1)NC(=O)[C@H](CC(=O)O)NC(=O)[C@H](CO)NC(=O)[C@@H](NC(=O)[C@H](Cc1ccccc1)NC(=O)[C@@H](NC(=O)CNC(=O)[C@H](Cc1c[nH]cn1)NC(=O)[C@H](CO)NC(=O)[C@@H](N)Cc1ccc(O)cc1)[C@@H](C)O)[C@@H](C)O)C(=O)N[C@@H](CC(=O)O)C(=O)N[C@@H](CCCCNC(=O)CC[C@H](NC(=O)CC[C@H](NC(=O)COCCOCCNC(=O)CCCCCCCCCCCCCCCCCCC(=O)O)C(=O)O)C(=O)O)C(=O)N[C@@H](CCCCN)C(=O)N[C@@H](Cc1ccc(O)cc1)C(=O)N[C@@H](C)C(=O)N[C@H]1CCC(=O)NCCCC[C@@H](C(=O)N[C@@H](Cc2c[nH]c3ccccc23)C(=O)N[C@@H](CC(C)C)C(=O)N[C@@H](CCC(=O)O)C(=O)N[C@@H](CC(=O)O)C(=O)N[C@@H](CCC(=O)O)C(=O)N2CCC[C@H]2C(=O)N[C@@H](CO)C(=O)N[C@@H](CO)C(=O)NCC(=O)N[C@@H](C)C(=O)N2CCC[C@H]2C(=O)N2CCC[C@H]2C(=O)N2CCC[C@H]2C(=O)N[C@@H](CO)C(N)=O)NC(=O)[C@H](C(C)C)NC(=O)[C@H](Cc2ccccc2)NC(=O)[C@H](CCCCN)NC1=O` [Compound A34] (H-YSHGTFTSDYSKYLDK([γGlu-γGlu-AEEA-C20 diacid])KYAEKFVKWLEDEPSSGAPPPS-NH2; lactam 20-24), for which the results for the EC50 in assay [1] and in assay [2] were 0.00126 nM and more than 1 nM, respectively. With `CC(C)C[C@H](NC(=O)[C@H](Cc1ccc(O)cc1)NC(=O)[C@H](CCCCN)NC(=O)[C@H](CO)NC(=O)[C@H](Cc1ccc(O)cc1)NC(=O)[C@H](CC(=O)O)NC(=O)[C@H](CO)NC(=O)[C@@H](NC(=O)[C@H](Cc1ccccc1)NC(=O)[C@@H](NC(=O)CNC(=O)[C@H](Cc1c[nH]cn1)NC(=O)[C@H](CO)NC(=O)[C@@H](N)Cc1ccc(O)cc1)[C@@H](C)O)[C@@H](C)O)C(=O)N[C@@H](CC(=O)O)C(=O)N[C@@H](CCCCNC(=O)CC[C@H](NC(=O)CC[C@H](NC(=O)COCCOCCNC(=O)CCCCCCCCCCCCCCCCCCC(=O)O)C(=O)O)C(=O)O)C(=O)N[C@@H](CCCCN)C(=O)N[C@@H](Cc1ccc(O)cc1)C(=O)N[C@@H](C)C(=O)N[C@H]1CCC(=O)NCCCC[C@@H](C(=O)N[C@@H](Cc2c[nH]c3ccccc23)C(=O)N[C@@H](CC(C)C)C(=O)N[C@@H](CCC(=O)O)C(=O)N[C@@H](CO)C(=O)N[C@@H](CCC(=O)O)C(=O)N2CCC[C@H]2C(=O)N[C@@H](CO)C(=O)N[C@@H](CO)C(=O)NCC(=O)N[C@@H](C)C(=O)N2CCC[C@H]2C(=O)N2CCC[C@H]2C(=O)N2CCC[C@H]2C(=O)N[C@@H](CO)C(=O)O)NC(=O)[C@H](C(C)C)NC(=O)[C@H](Cc2ccccc2)NC(=O)[C@H](CCCCN)NC1=O` [Compound A28] (H-YSHGTFTSDYSKYLDK([γGlu-γGlu-AEEA-C20 diacid])KYAEKFVKWLESEPSSGAPPPS-OH; lactam 20-24; N-terminus assumed), the half-maximal effective concentration (EC50) was 0.002 nM in assay [1] and more than 1 nM in assay [2]. Consider `CC(C)C[C@H](NC(=O)[C@H](Cc1ccc(O)cc1)NC(=O)[C@H](CCCCN)NC(=O)[C@H](CO)NC(=O)[C@H](Cc1ccc(O)cc1)NC(=O)[C@H](CC(=O)O)NC(=O)[C@H](CO)NC(=O)[C@@H](NC(=O)[C@H](Cc1ccccc1)NC(=O)[C@@H](NC(=O)CNC(=O)[C@H](Cc1c[nH]cn1)NC(=O)[C@H](CO)NC(=O)[C@@H](N)Cc1ccc(O)cc1)[C@@H](C)O)[C@@H](C)O)C(=O)N[C@@H](CC(=O)O)C(=O)N[C@@H](CCCCNC(=O)CC[C@H](NC(=O)CC[C@H](NC(=O)COCCOCCNC(=O)CCCCCCCCCCCCCCCCCCC(=O)O)C(=O)O)C(=O)O)C(=O)N[C@@H](CCCCN)C(=O)N[C@@H](Cc1ccc(O)cc1)C(=O)N[C@@H](C)C(=O)N[C@@H](CCC(N)=O)C(=O)N[C@@H](CCC(=O)O)C(=O)N[C@@H](Cc1ccccc1)C(=O)N[C@H](C(=O)NC(C)(C)C(=O)N[C@@H](Cc1c[nH]c2ccccc12)C(=O)N[C@@H](CC(C)C)C(=O)N[C@@H](CCC(=O)O)C(=O)N(C)[C@@H](CCC(=O)O)C(=O)N[C@@H](CCC(=O)O)C(=O)N1CCC[C@H]1C(=O)N[C@@H](CO)C(=O)N[C@@H](CO)C(=O)NCC(=O)N[C@@H](C)C(=O)N1CCC[C@H]1C(=O)N1CCC[C@H]1C(=O)N1CCC[C@H]1C(=O)N[C@@H](CO)C(=O)O)C(C)C` [Compound A18], for which the concentration for a half-maximal effect (EC50) in assay [1] was 0.0398 nM; in assay [2], more than 1 nM. For the molecule `CC(C)C[C@H](NC(=O)[C@H](Cc1ccc(O)cc1)NC(=O)[C@H](CCCCN)NC(=O)[C@H](CO)NC(=O)[C@H](Cc1ccc(O)cc1)NC(=O)[C@H](CC(=O)O)NC(=O)[C@H](CO)NC(=O)[C@@H](NC(=O)[C@H](Cc1ccccc1)NC(=O)[C@@H](NC(=O)CNC(=O)[C@H](Cc1c[nH]cn1)NC(=O)[C@H](CO)NC(=O)[C@@H](N)Cc1ccc(O)cc1)[C@@H](C)O)[C@@H](C)O)C(=O)N[C@@H](CC(=O)O)C(=O)N[C@@H](CCCCNC(=O)CC[C@H](NC(=O)CC[C@H](NC(=O)COCCOCCNC(=O)CCCCCCCCCCCCCCCCCCC(=O)O)C(=O)O)C(=O)O)C(=O)N[C@@H](CCCCN)C(=O)N[C@@H](Cc1ccc(O)cc1)C(=O)N[C@@H](C)C(=O)N[C@@H](CCC(N)=O)C(=O)N[C@@H](CCC(=O)O)C(=O)N[C@@H](Cc1ccccc1)C(=O)NC(C)(C)C(=O)N[C@@H](CCC(=O)O)C(=O)N[C@@H](Cc1c[nH]c2ccccc12)C(=O)N[C@@H](CC(C)C)C(=O)N[C@@H](CCC(=O)O)C(=O)N[C@@H](CC(=O)O)C(=O)N[C@@H](CCC(=O)O)C(=O)N1CCC[C@H]1C(=O)N[C@@H](CO)C(=O)N[C@@H](CO)C(=O)NCC(=O)N[C@@H](C)C(=O)N1CCC[C@H]1C(=O)N1CCC[C@H]1C(=O)N1CCC[C@H]1C(=O)N[C@@H](CO)C(=O)O` [Compound A8] (H-YSHGTFTSDYSKYLDK([γGlu-γGlu-AEEA-C20 diacid])KYAQEF[Aib]EWLEDEPSSGAPPPS-OH; N-terminus assumed), the values for the EC50 in assay [1] and in assay [2] were 0.126 nM and more than 1 nM, respectively. In assay [1], `CC(C)C[C@H](NC(=O)[C@H](Cc1ccc(O)cc1)NC(=O)[C@H](CCCCN)NC(=O)[C@H](CO)NC(=O)[C@H](Cc1ccc(O)cc1)NC(=O)[C@H](CC(=O)O)NC(=O)[C@H](CO)NC(=O)[C@@H](NC(=O)[C@H](Cc1ccccc1)NC(=O)[C@@H](NC(=O)CNC(=O)[C@H](Cc1c[nH]cn1)NC(=O)[C@H](CO)NC(=O)[C@@H](N)Cc1ccc(O)cc1)[C@@H](C)O)[C@@H](C)O)C(=O)N[C@@H](CCCCNC(=O)CC[C@H](NC(=O)CC[C@H](NC(=O)COCCOCCNC(=O)CCCCCCCCCCCCCCCCCCC(=O)O)C(=O)O)C(=O)O)C(=O)NC(C)(C)C(=O)N[C@@H](CCCCN)C(=O)N[C@@H](Cc1ccc(O)cc1)C(=O)N[C@@H](C)C(=O)N[C@@H](CCC(N)=O)C(=O)N[C@@H](CCC(=O)O)C(=O)N[C@@H](Cc1ccccc1)C(=O)N[C@H](C(=O)NC(C)(C)C(=O)N[C@@H](Cc1c[nH]c2ccccc12)C(=O)N[C@@H](CC(C)C)C(=O)N[C@@H](CCC(=O)O)C(=O)N[C@@H](CC(=O)O)C(=O)N[C@@H](CCC(=O)O)C(=O)N1CCC[C@H]1C(=O)N[C@@H](CO)C(=O)N[C@@H](CO)C(=O)NCC(=O)N[C@@H](C)C(=O)N1CCC[C@H]1C(=O)N1CCC[C@H]1C(=O)N1CCC[C@H]1C(=O)N[C@@H](CO)C(=O)O)C(C)C` [Compound A1] (H-YSHGTFTSDYSKYLK([γGlu-γGlu-AEEA-C20 diacid])[Aib]KYAQEFV[Aib]WLEDEPSSGAPPPS-OH) gave an EC50 of 0.00316 nM.

For the origin of these results see US20240228572A1 (i2o Therapeutics, Inc., priority 2020, published 2024).
